Consider 26 compounds from US9334246B2, “Substituted triazines for malaria treatment and chemoprophylaxis” (The United States of America, as represented by the …, priority 2013, dated 2016).

In data set [1] the test system is P. falciparum D6. Description: Malaria SYBR Green Fluorescence Assay, D6 strain. It counts as cell-based, Plasmodium falciparum. As to conditions: for D6: SYBR Green Assay.
Data set [2] concerns P. falciparum C235. Description: Malaria SYBR Green Fluorescence Assay, C235 strain. The class given is cell-based, Plasmodium falciparum. As to conditions: for C235: SYBR Green Assay.
The target of data set [3] is hERG potassium ion channel (Homo sapiens, UniProt Q12809). Description: hERG patch clamp assay (% inhibition at 10 μM). As to conditions: for hERG (% inhibition): 10 μM. For orientation: Block of hERG is tested as a sign of cardiac risk.
hERG potassium ion channel, sequence (Q12809 whole entry): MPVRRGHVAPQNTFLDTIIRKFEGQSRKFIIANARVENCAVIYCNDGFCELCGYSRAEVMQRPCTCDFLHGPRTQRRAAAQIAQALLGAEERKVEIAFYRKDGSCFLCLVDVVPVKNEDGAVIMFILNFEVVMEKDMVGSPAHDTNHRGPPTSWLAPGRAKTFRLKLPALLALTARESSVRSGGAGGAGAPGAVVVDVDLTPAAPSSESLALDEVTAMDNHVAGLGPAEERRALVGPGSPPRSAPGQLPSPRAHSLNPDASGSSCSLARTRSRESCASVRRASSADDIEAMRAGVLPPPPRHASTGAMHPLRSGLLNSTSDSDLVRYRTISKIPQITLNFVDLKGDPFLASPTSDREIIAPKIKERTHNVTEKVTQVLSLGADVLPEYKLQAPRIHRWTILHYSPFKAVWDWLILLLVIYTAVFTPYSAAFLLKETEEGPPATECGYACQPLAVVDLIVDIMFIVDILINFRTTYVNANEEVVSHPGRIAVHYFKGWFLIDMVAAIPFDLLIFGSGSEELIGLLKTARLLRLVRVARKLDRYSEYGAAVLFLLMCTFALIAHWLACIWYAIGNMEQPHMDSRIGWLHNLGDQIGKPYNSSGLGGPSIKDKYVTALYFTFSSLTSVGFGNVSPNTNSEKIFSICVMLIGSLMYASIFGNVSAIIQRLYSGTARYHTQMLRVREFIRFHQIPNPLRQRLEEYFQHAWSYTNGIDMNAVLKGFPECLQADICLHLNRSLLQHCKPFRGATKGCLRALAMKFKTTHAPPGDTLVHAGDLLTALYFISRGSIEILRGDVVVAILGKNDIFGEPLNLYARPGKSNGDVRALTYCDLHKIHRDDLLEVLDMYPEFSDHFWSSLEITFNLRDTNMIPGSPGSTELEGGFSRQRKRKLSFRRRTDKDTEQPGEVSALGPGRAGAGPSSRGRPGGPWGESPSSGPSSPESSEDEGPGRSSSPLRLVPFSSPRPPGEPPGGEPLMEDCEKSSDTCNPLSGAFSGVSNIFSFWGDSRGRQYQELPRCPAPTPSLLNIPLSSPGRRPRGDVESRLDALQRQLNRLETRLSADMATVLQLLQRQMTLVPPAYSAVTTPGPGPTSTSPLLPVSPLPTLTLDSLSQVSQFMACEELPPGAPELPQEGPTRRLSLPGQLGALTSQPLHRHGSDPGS
Data set [4] relates to P. falciparum W2. Briefly: Malaria SYBR Green Fluorescence Assay, W2 strain. The class given is cell-based, Plasmodium falciparum. As to conditions: for W2: SYBR Green Assay.
Setting [5] is: % inhibition at 10 μM, patch clamp.

Regarding `CCC(N)(CC)CNc1nc(-c2ccc3ccccc3c2)nc(C(Cl)(Cl)Cl)n1` [Cmpd 377], the “D6 (SYBR Green Assay IC50)” value in data set [1] is recorded as 2 ng/mL. In data set [2], the “C235 (SYBR Green Assay IC50)” value came out at 8 ng/mL. For the same compound, in data set [3], the “hERG (% inhibition)” value is 25%. The “W2 (SYBR Green Assay IC50)” value in data set [4] is recorded as 6 ng/mL.
On to `CC1(C)CC(Nc2nc(-c3ccc(C(C)(C)C)cc3)nc(C(Cl)(Cl)Cl)n2)CC(C)(C)N1` [Cmpd 321], for which the D6 in data set [1] is recorded as 6 ng/mL. In data set [2], this compound yielded a C235 of 11 ng/mL. In data set [3] (setting [5]), this compound gave a hERG of 11%. The W2 in data set [4] is given as 3 ng/mL.
As to “CN(C)CCCNc1nc(Nc2ccc(Cl)c(Cl)c2)nc(n1)C(Cl)(Cl)Cl [Compound 637]”, the “D6 (SYBR Green Assay IC50)” value in data set [1] is 17 ng/mL. Further, the “C235 (SYBR Green Assay IC50)” value in data set [2] was 20 ng/mL. For the same compound, the “hERG (% inhibition)” value in data set [3] is given as 103%. Besides, the “W2 (SYBR Green Assay IC50)” value in data set [4] was determined as 13 ng/mL.
For `Cc1ccccc1-c1nc(NCCN2CCCC2)nc(C(Cl)(Cl)Cl)n1` [Cmpd 121], the D6 in data set [1] is reported as 70 ng/mL. The same compound returned a C235 in data set [2] of 84 ng/mL. Also, the hERG in data set [3] (setting [5]) amounted to 103%. Moreover, the W2 in data set [4] is 42 ng/mL.
In the case of “Cc1cc(CNc2nc(nc(n2)C(Cl)(Cl)Cl)c3ccc(Cl)c(Cl)c3)n(C)n1 [Compound 708]”, the D6 in data set [1] was 319.7 ng/mL. In data set [2], the C235 amounted to 221 ng/mL. Further, in data set [3] (hERG activity as % inhibition), the hERG amounted to 12.2%. The same compound had a W2 in data set [4] of 75.2 ng/mL.
Compound `COc1ccc(Cc2nc(NCCN3CCCC3C)nc(C(Cl)(Cl)Cl)n2)cc1` (centres unmarked) [Cmpd 89] returned a D6 in data set [1] of 805 ng/mL. Moreover, the C235 in data set [2] was 991 ng/mL. Moreover, the hERG in data set [3] (setting [5]) is recorded as 50%. Further, the W2 in data set [4] was 718 ng/mL.
The like results for `CC(C)(C)c1ccc(-c2nc(NCCCN3CCCC3)nc(C(Cl)(Cl)Cl)n2)cc1` [Cmpd 34] were, in that order, 152 ng/mL, 152 ng/mL, 80.9% and 141 ng/mL.
Turning to “CC(C)(C)c1ccc(cc1)c2nc(Nc3ccncc3)nc(n2)C(Cl)(Cl)Cl [Compound 739]”, in data set [1], the D6 is reported as 23 ng/mL. Moreover, the C235 in data set [2] is given as 25 ng/mL. Also, the hERG in data set [3] (hERG activity as % inhibition) is listed as 26%. In data set [4], this compound yielded a W2 of 24 ng/mL.
Turning to `Fc1ccc(-c2nc(NCCCN3CCCC3)nc(C(Cl)(Cl)Cl)n2)cc1` [Cmpd 381], the “D6 (SYBR Green Assay IC50)” value in data set [1] is given as 5 ng/mL. For the same compound, in data set [2], the “C235 (SYBR Green Assay IC50)” value stood at 14 ng/mL. Moreover, in data set [3], the “hERG (% inhibition)” value is reported as 106%. Besides, the “W2 (SYBR Green Assay IC50)” value in data set [4] was determined as 9 ng/mL.
In the case of `CN1CCN(c2nc(-c3ccc(Cl)cc3)nc(C(Cl)(Cl)Cl)n2)CC1` [Cmpd 29], the D6 in data set [1] is reported as 307 ng/mL. The compound also registered a C235 in data set [2] of 351 ng/mL. In addition, the hERG in data set [3] (setting [5]) was 5%. In data set [4], this compound came in with a W2 of 173 ng/mL.
As for `CCC(N)(CC)CNc1nc(-c2ccc(-c3ccccc3)cc2)nc(C(Cl)(Cl)Cl)n1` [Cmpd 364], in data set [1], the “D6 (SYBR Green Assay IC50)” value worked out at 3 ng/mL. In addition, in data set [2], the “C235 (SYBR Green Assay IC50)” value turned out to be 6 ng/mL. Moreover, the “hERG (% inhibition)” value in data set [3] was found to be 25%. Also, the “W2 (SYBR Green Assay IC50)” value in data set [4] was 4 ng/mL.
In the case of `CCN(CC)CCNc1nc(Nc2ccc(OC(F)(F)F)cc2)nc(C(Cl)(Cl)Cl)n1` [Cmpd 374], in data set [1], the “D6 (SYBR Green Assay IC50)” value is listed as 2 ng/mL. Besides, in data set [2], the “C235 (SYBR Green Assay IC50)” value is 5 ng/mL. In addition, in data set [3], the “hERG (% inhibition)” value is 109%. For the same compound, the “W2 (SYBR Green Assay IC50)” value in data set [4] came to 5 ng/mL.
For `ClC(Cl)(Cl)c1nc(NCCN2CCCC2)nc(-c2ccc(-c3ccccc3)cc2)n1` [Cmpd 196], the D6 in data set [1] is recorded as 31 ng/mL. The compound also displayed a C235 in data set [2] of 30 ng/mL. In data set [3] (setting [5]), this compound displayed a hERG of 53%. Also, the W2 in data set [4] came out at 25 ng/mL.
In data set [1], “3-(4-((3-(dimethylamino)propyl)amino)-6-(trichloromethyl)-1,3,5-triazin-2-yl)benzoic acid [Example 11]” registered a D6 of 588 ng/mL. Further, the C235 in data set [2] is given as 592 ng/mL. In data set [3] (hERG activity as % inhibition), the hERG was found to be 15%. In addition, in data set [4], the W2 worked out at 475 ng/mL.
`CN1CCCN(c2nc(-c3cc(Cl)cc(Cl)c3)nc(C(Cl)(Cl)Cl)n2)CC1` [Cmpd 205] yielded a D6 in data set [1] of 23 ng/mL. For the same compound, the C235 in data set [2] came to 26 ng/mL. Moreover, the hERG in data set [3] (setting [5]) was 20%. In addition, the W2 in data set [4] was determined as 7 ng/mL.
For `NC1(CNc2nc(-c3cccc(C(F)(F)F)c3)nc(C(Cl)(Cl)Cl)n2)CCOCC1` [Cmpd 315] the same measures were 3 ng/mL, 8 ng/mL, 36% and 1 ng/mL.
For `CCN1CCCC(Nc2nc(-c3ccc(C)cc3)nc(C(Cl)(Cl)Cl)n2)C1` (centres unmarked) [Cmpd 80] the same measures were 135 ng/mL, 129 ng/mL, 97% and 90 ng/mL.
Consider “CCN1CCC(CC1)C(C)Nc2nc(Nc3cc(Cl)cc(Cl)c3)nc(n2)C(Cl)(Cl)Cl [Compound 645]”, for which the “D6 (SYBR Green Assay IC50)” value in data set [1] worked out at 79.11 ng/mL. Further, the “C235 (SYBR Green Assay IC50)” value in data set [2] amounted to 58.86 ng/mL. The “hERG (% inhibition)” value in data set [3] amounted to 75%. Also, the “W2 (SYBR Green Assay IC50)” value in data set [4] was 37.5 ng/mL.
On to `CCN(CC)CCNc1nc(Cc2ccccc2OC)nc(C(Cl)(Cl)Cl)n1` [Cmpd 70], for which, in data set [1], the D6 is recorded as 6 ng/mL. The same compound returned a C235 in data set [2] of 6 ng/mL. This compound came in with a hERG in data set [3] (setting [5]) of 100%. This compound returned a W2 in data set [4] of 6 ng/mL.
For `COc1ncccc1Nc1nc(NC2CC(C)(C)NC(C)(C)C2)nc(C(Cl)(Cl)Cl)n1` [Cmpd 348], the D6 in data set [1] came to 11 ng/mL. For the same compound, in data set [2], the C235 is listed as 18 ng/mL. Further, the hERG in data set [3] (setting [5]) is listed as 96%. Further, the W2 in data set [4] was 9 ng/mL.
The like results for `CN1CCC(Nc2nc(-c3ccc(S(C)(=O)=O)cc3)nc(C(Cl)(Cl)Cl)n2)CC1` [Cmpd 77] were, in that order, 92 ng/mL, 131 ng/mL, 72% and 53 ng/mL.
On to `COc1cccc(-c2nc(NCCN3CCCC3)nc(C(Cl)(Cl)Cl)n2)c1` [Cmpd 192], for which the D6 in data set [1] was found to be 18 ng/mL. This compound showed a C235 in data set [2] of 12 ng/mL. This compound also yielded a hERG in data set [3] (setting [5]) of 100%. For the same compound, the W2 in data set [4] is 13 ng/mL.
The like results for `Clc1ccc(-c2nc(NCCc3ccccn3)nc(C(Cl)(Cl)Cl)n2)cc1` [Cmpd 140] were, in that order, 106 ng/mL, 136 ng/mL, 11% and 32 ng/mL.
Consider `COc1ccc(-c2nc(NCc3ccncc3)nc(C(Cl)(Cl)Cl)n2)cc1` [Cmpd 130], for which the D6 in data set [1] was 12 ng/mL. This compound came in with a C235 in data set [2] of 24 ng/mL. In data set [3] (setting [5]), this compound showed a hERG of 20%. In data set [4], this compound showed a W2 of 5 ng/mL.
As for `CCN1CCCC(Nc2nc(-c3ccc(F)cc3)nc(C(Cl)(Cl)Cl)n2)C1` (centres unmarked) [Cmpd 387], the “D6 (SYBR Green Assay IC50)” value in data set [1] is 4 ng/mL. Also, in data set [2], the “C235 (SYBR Green Assay IC50)” value worked out at 13 ng/mL. Besides, the “hERG (% inhibition)” value in data set [3] turned out to be 108%. In addition, the “W2 (SYBR Green Assay IC50)” value in data set [4] is reported as 7 ng/mL.
Consider “COc1ccc(cc1)c2nc(nc(n2)C(Cl)(Cl)Cl)N3CC4CC3CN4 [Compound 718]”, for which the D6 in data set [1] is reported as 278.6 ng/mL. The compound further displayed a C235 in data set [2] of 139.2 ng/mL. The same compound returned a hERG in data set [3] (hERG activity as % inhibition) of 23.5%. The W2 in data set [4] is 77.35 ng/mL.
